The values that follow come from patent US11297837B2, “Pesticidally activi mixtures comprising anthranilamide compounds” (priority 2016, dated 2022).

Type in all cases: in vivo
Test [1] concerns green peach aphid (Myzus persicae). The test is described as follows: Green peach aphid (Myzus persicae) control through systemic means, artificial diet in 96-well microtiter plates. The following applies: 2 ppm; aphid mortality and fecundity visually assessed after 3 days. The source says:
For evaluating control of green peach aphid (Myzus persicae) through systemic means the test unit consisted of 96-well-microtiter plates containing liquid artificial diet under an artificial membrane.
Different concentrations of formulated compounds or mixtures were pipetted into the aphid diet, using a custom built pipetter, at two replications.
(§1) For experimental mixtures in these tests identical volumes of both mixing partners at the desired concentrations respectively, were mixed together.
After application, 5-8 adult aphids were placed on the artificial membrane inside the microtiter plate wells. […] Aphid mortality and fecundity was then visually assessed.

Test [2] concerns yellow fever mosquito (Aedes aegypti). Nature of the test: Yellow fever mosquito (Aedes aegypti) control, larvae in tap water in 96-well microtiter plates. Particulars: larval mortality visually assessed after 2 days. Here is the method: For evaluating control of yellow fever mosquito (Aedes aegypti) the test unit consisted of 96-well-microtiter plates containing 200 μl of tap water per well and 5-15 freshly hatched A. aegypti larvae.
The compounds or mixtures were formulated using a solution containing 75% water and 25% DMSO. Different concentrations of formulated compounds or mixtures were sprayed onto the insect diet at 2.5 μl, using a custom built micro atomizer, at two replications.
as §1
After application, microtiter plates were incubated at 28±1° C., 80±5% RH for 2 days. Larval mortality was then visually assessed.

Test [3] relates to boll weevil (Anthonomus grandis). Nature of the test: Boll weevil (Anthonomus grandis) control, insect diet with eggs in 24-well microtiter plates. The following applies: egg and larval mortality visually assessed after 5 days. Here is the method: For evaluating control of boll weevil the test unit consisted of 24-well-microtiter plates containing an insect diet and 20-30 A. grandis eggs.
The compounds or mixtures were formulated using a solution containing 75% water and 25% DMSO. Different concentrations of formulated compounds or mixtures were sprayed onto the insect diet at 20 μl, using a custom built micro atomizer, at two replications.
as §1
After application, microtiter plates were incubated at 23+1° C., 50+5% RH for 5 days. Egg and larval mortality was then visually assessed.

On to `CCN1OC[C@@H](NC(=O)c2ccc(C3=NOC(c4cc(Cl)cc(Cl)c4)(C(F)(F)F)C3)cc2C)C1=O` (stereo partly drawn) [II-4.1, 4-[5-(3,5-dichlorophenyl)-5-(trifluoromethyl)-4H-isoxazol-3-yl]-N-[(4R)-2-ethyl-3-oxo-isoxazolidin-4-yl]-2-methyl-benzamide], for which the “Average Control %” value in test [1] was 0%. Regarding `Cn1nc(C(F)(F)C(F)(F)F)c(C(F)(F)F)c1C(=O)Nc1ccc(Cl)c(C(=O)NCc2ccccc2)c1` [II-1, N-[4-Chloro-3-[[(phenylmethyl)amino]carbonyl]phenyl]-1-methyl-3-(1,1,2,2,2-pentafluoroethyl)-4-(trifluoromethyl)-1H-pyrazole-5-carboxamide], the “Average Control %” value was determined as 50% in test [2] (20 ppm) and 0% in test [3] (20 ppm). In the case of `CC(NC(=O)c1cc(Cl)cc(Br)c1NC(=O)c1cc(Br)nn1-c1ncccc1Cl)C1CC1` (centres unmarked) [I.2, cyclaniliprole, reference compound], the “Average Control %” value in test [2] (2 ppm) and in test [3] (0.08 ppm) was 0% in each case.
